Data from ChEMBL document CHEMBL1201862, “PubChem BioAssay data set” (2004).
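Tested at 5 concentrations; 48 h exposure; 96-well plates; endpoints linearly interpolated, else capped at highest concentration. GI50: concentration for 50% inhibition of growth.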 The source made the active and inactive calls. No stated cut-off is given here; in the data, active = GI50 up to about 1.1 µM and inactive = higher.

Columns and labels:
Test in all cases: DTP human tumour cell line panel, 48 h
[1] = test system: BT-549
[2] = test system: CCRF-CEM
[3] = test system: HCC 2998
[4] = test system: HCT-15
[5] = test system: KM12
[6] = test system: LOX IMVI
[7] = test system: M14
[8] = test system: MCF7
[9] = test system: MOLT-4
[10] = test system: NCI/ADR-RES
[11] = test system: OVCAR-3
[12] = test system: RPMI-8226
[13] = test system: SF-295
[14] = test system: SK-MEL-5
[15] = test system: SK-OV-3
[16] = test system: SNB-75
[17] = test system: T47D
[18] = test system: TK-10
[19] = test system: UACC-62
[20] = test system: NCI-H226

Structure (SMILES) | GI50 [1] | GI50 [2] | GI50 [3] | GI50 [4] [µM] | GI50 [5] | GI50 [6] | GI50 [7] | GI50 [8] | GI50 [9] | GI50 [10] | GI50 [11] | GI50 [12] | GI50 [13] | GI50 [14] | GI50 [15] | GI50 [16] | GI50 [17] | GI50 [18] | GI50 [19] | GI50 [20]
CCOC(=O)c1nc2ccc(C(F)(F)F)cc2nc1Nc1cc(OC)c(OC)c(OC)c1 | > 100 µM (inactive) | > 100 µM (inactive) | > 100 µM (inactive) | > 100 | > 100 µM (inactive) | > 100 µM (inactive) | > 100 µM (inactive) | > 100 µM (inactive) | > 100 µM (inactive) | > 100 µM (inactive) | > 100 µM (inactive) | > 100 µM (inactive) | > 100 µM (inactive) | > 100 µM (inactive) | > 100 µM (inactive) | > 100 µM (inactive) | > 100 µM (inactive) | > 100 µM (inactive) | > 100 µM (inactive) | –
CCOP(=O)(OCC)C(C)(CC)NC (stereo unspecified) | > 100 µM (inactive) | 0.935 µM (active) | > 100 µM (inactive) | > 100 | > 100 µM (inactive) | > 100 µM (inactive) | > 100 µM (inactive) | > 100 µM (inactive) | > 100 µM (inactive) | > 100 µM (inactive) | > 100 µM (inactive) | – | > 100 µM (inactive) | > 100 µM (inactive) | > 100 µM (inactive) | > 100 µM (inactive) | > 100 µM (inactive) | > 100 µM (inactive) | > 100 µM (inactive) | > 100 µM (inactive)
Clc1ccc(-c2nnc3sc4nc5ccccc5c-4nn23)c(Cl)c1 | 28.9 µM (inactive) | 36.5 µM (inactive) | 28.7 µM (inactive) | 34.9 | 37.5 µM (inactive) | 44 µM (inactive) | 48.3 µM (inactive) | 43.3 µM (inactive) | 36.8 µM (inactive) | 34.4 µM (inactive) | 29 µM (inactive) | – | 36.2 µM (inactive) | 42.8 µM (inactive) | 95.1 µM (inactive) | 71 µM (inactive) | 59.2 µM (inactive) | 55.2 µM (inactive) | 33.5 µM (inactive) | 64.3 µM (inactive)
CC(C)C[C@H](NC(=O)[C@H](Cc1cccc2ccccc12)NS(=O)(=O)c1cccc2cccnc12)B(O)O | < 0.0306 µM (active) | < 0.01 µM (active) | 0.00219 µM (active) | 0.227 | 0.0432 µM (active) | < 0.0118 µM (active) | – | < 0.0151 µM (active) | < 0.01 µM (active) | 2.32 µM (inactive) | < 0.0111 µM (active) | < 0.01 µM (active) | – | < 0.01 µM (active) | 0.359 µM (active) | – | < 0.01 µM (active) | < 0.0285 µM (active) | 0.0223 µM (active) | 0.000208 µM (active)
CC(SC(=S)N1CCCCC1)C(=O)Nc1nnc(-c2ccc(Cl)cc2)o1 (stereo unspecified) | 51.2 µM (inactive) | – | 34.8 µM (inactive) | 13 | – | 23.6 µM (inactive) | 20.1 µM (inactive) | 25.8 µM (inactive) | – | 17.5 µM (inactive) | 11 µM (inactive) | 20.2 µM (inactive) | – | 32.1 µM (inactive) | 21.5 µM (inactive) | 20.1 µM (inactive) | 36.8 µM (inactive) | 50.6 µM (inactive) | 25.2 µM (inactive) | 38.5 µM (inactive)
CCCCCc1cc2cc3c(c(O)c2c(=O)[nH]1)C1(CCC3)C(=O)c2c(O)c3c(c(O)c2C1=O)C(=O)C(OC)=CC3=O (stereo unspecified) | 0.703 µM (active) | 0.586 µM (active) | 2.05 µM (inactive) | 0.42 | 1.85 µM (inactive) | 0.661 µM (active) | 0.908 µM (active) | 0.317 µM (active) | 0.582 µM (active) | 4.56 µM (inactive) | 0.499 µM (active) | 0.386 µM (active) | 1.91 µM (inactive) | 0.515 µM (active) | 2.24 µM (inactive) | 0.906 µM (active) | 0.0959 µM (active) | – | 0.916 µM (active) | 1.87 µM (inactive)
O=C(CC1C=CCS1(=O)=O)NCc1ccccc1 (stereo unspecified) | > 100 µM (inactive) | > 100 µM (inactive) | > 100 µM (inactive) | > 100 | > 100 µM (inactive) | > 100 µM (inactive) | > 100 µM (inactive) | > 100 µM (inactive) | > 100 µM (inactive) | > 100 µM (inactive) | > 100 µM (inactive) | – | > 100 µM (inactive) | > 100 µM (inactive) | > 100 µM (inactive) | > 100 µM (inactive) | > 100 µM (inactive) | > 100 µM (inactive) | > 100 µM (inactive) | > 100 µM (inactive)
COc1cc(C2CC(C)(O)Oc3cc4c(cc32)OCO4)cc(OC)c1OC (stereo unspecified) | 0.583 µM (active) | 0.34 µM (active) | 1.31 µM (inactive) | 0.521 | 0.191 µM (active) | 0.839 µM (active) | 0.466 µM (active) | 0.321 µM (active) | 0.451 µM (active) | 0.233 µM (active) | 0.315 µM (active) | 0.325 µM (active) | 0.184 µM (active) | 0.208 µM (active) | – | – | 0.296 µM (active) | 61 µM (inactive) | 0.23 µM (active) | 0.891 µM (active)
CC(C)=CCC/C(C)=C/CC/C(C)=C/CC/C(C=O)=C/CC/C(C)=C\CC/C(C)=C/CC/C(C)=C/CC/C(C)=C/CC1=CC(=O)C=CC1=O | > 100 µM (inactive) | 72.8 µM (inactive) | > 100 µM (inactive) | > 100 | 81.3 µM (inactive) | 80.2 µM (inactive) | 45.3 µM (inactive) | 0.365 µM (active) | 55.5 µM (inactive) | > 100 µM (inactive) | 54.2 µM (inactive) | 37.4 µM (inactive) | 91.4 µM (inactive) | 56 µM (inactive) | > 100 µM (inactive) | 38.1 µM (inactive) | 10.5 µM (inactive) | > 100 µM (inactive) | 21.1 µM (inactive) | –
COc1ccc(N2C(=O)C3c4[nH]c5ccc(C)cc5c4C4CCC(C(C)(C)C)CC4C3C2=O)cc1 (stereo unspecified) | 20.7 µM (inactive) | 4.84 µM (inactive) | 41 µM (inactive) | 27.5 | 32.8 µM (inactive) | – | 10.7 µM (inactive) | 33 µM (inactive) | 12.9 µM (inactive) | 13.3 µM (inactive) | 10 µM (inactive) | 11.2 µM (inactive) | 5.48 µM (inactive) | 20.7 µM (inactive) | 12.4 µM (inactive) | 2.96 µM (inactive) | 35.2 µM (inactive) | 17.1 µM (inactive) | 7.93 µM (inactive) | 21.1 µM (inactive)
Cc1nc2ccc(F)cc2c2c1CCS2 | 54.8 µM (inactive) | 41 µM (inactive) | 58.1 µM (inactive) | > 100 | 64.9 µM (inactive) | 51.3 µM (inactive) | – | 56.4 µM (inactive) | 38.1 µM (inactive) | 95.1 µM (inactive) | 45.9 µM (inactive) | 38.8 µM (inactive) | 94.4 µM (inactive) | 30.3 µM (inactive) | – | 38.6 µM (inactive) | 33.7 µM (inactive) | 54.5 µM (inactive) | 81.7 µM (inactive) | –
